Measurements reported in paper PMC5218480 (PLoS ONE, 2017).

System: MV-4-11 cells
Experiment: Gene expression microarray analysis (Affymetrix PrimeView) and GSEA
Format: cell-based, human
Parameters: RFU PODN (11730768_x_at) / Fold change /veh PODN (11730768_x_at) / RFU LINC00158 (11744669_a_at) / Fold change /veh LINC00158 (11744669_a_at) / RFU DUSP10 (11751237_a_at) / Fold change /veh DUSP10 (11751237_a_at) / RFU ID3 (11757404_x_at) / Fold change /veh ID3 (11757404_x_at) / RFU PLEKHG5 (11737974_s_at) / Fold change /veh PLEKHG5 (11737974_s_at) / RFU LRRC4B (11730491_at) / Fold change /veh LRRC4B (11730491_at) / RFU GIMAP4 (11747438_a_at) / Fold change /veh GIMAP4 (11747438_a_at) / RFU KRT8 (11758183_x_at) / Fold change /veh KRT8 (11758183_x_at) / RFU CNN1 (11734310_a_at) / Fold change /veh CNN1 (11734310_a_at) / RFU VPS37D (11726825_at) / Fold change /veh VPS37D (11726825_at) / RFU C10orf10 (11716522_x_at) / Fold change /veh C10orf10 (11716522_x_at) / RFU KIR2DL2 /// KIR2DL4 /// KIR2DL5A /// KIR2DL5B /// KIR2DS1 /// KIR2DS2 /// KIR2DS3 /// KIR2DS4 /// KIR3DL3 /// KIR3DL3 /// KIR3DS1 (11738374_at) / Fold change /veh KIR2DL2 /// KIR2DL4 /// KIR2DL5A /// KIR2DL5B /// KIR2DS1 /// KIR2DS2 /// KIR2DS3 /// KIR2DS4 /// KIR3DL3 /// KIR3DL3 /// KIR3DS1 (11738374_at) / RFU C1QL1 (11718748_at) / Fold change /veh C1QL1 (11718748_at) / RFU TMPRSS4 (11747572_a_at) / Fold change /veh TMPRSS4 (11747572_a_at) / RFU HAMP (11756126_x_at) / Fold change /veh HAMP (11756126_x_at) / RFU RNFT2 (11725882_a_at) / Fold change /veh RNFT2 (11725882_a_at) / RFU NR4A2 (11747474_a_at) / Fold change /veh NR4A2 (11747474_a_at) / RFU ABCC12 (11746883_a_at) / Fold change /veh ABCC12 (11746883_a_at) / RFU TMEM136 (11760407_x_at) / Fold change /veh TMEM136 (11760407_x_at) / RFU CLDN22 /// WWC2 (11732394_at) / Fold change /veh CLDN22 /// WWC2 (11732394_at) / RFU HLA-DPB1 (11760878_x_at) / Fold change /veh HLA-DPB1 (11760878_x_at) / RFU SPINT1 (11716480_a_at) / Fold change /veh SPINT1 (11716480_a_at) / RFU GAP43 (11754022_s_at) / Fold change /veh GAP43 (11754022_s_at) / RFU A4GNT (11735810_at) / Fold change /veh A4GNT (11735810_at) / RFU PRB3 (11715151_x_at) / Fold change /veh PRB3 (11715151_x_at) / RFU TUBB4B (11761932_at) / Fold change /veh TUBB4B (11761932_at) / RFU CAPN14 (11732068_a_at) / Fold change /veh CAPN14 (11732068_a_at) / RFU TMCC2 (11721928_a_at) / Fold change /veh TMCC2 (11721928_a_at) / RFU IRGQ (11745062_a_at) / Fold change /veh IRGQ (11745062_a_at) / RFU FAM174B (11720279_a_at) / Fold change /veh FAM174B (11720279_a_at) / RFU TMPRSS4 (11748680_a_at) / Fold change /veh TMPRSS4 (11748680_a_at) / RFU FAM212B (11763350_a_at) / Fold change /veh FAM212B (11763350_a_at) / RFU PLEKHG5 (11743358_a_at) / Fold change /veh PLEKHG5 (11743358_a_at) / RFU ZSCAN30 (11745921_a_at) / Fold change /veh ZSCAN30 (11745921_a_at) / RFU CMKLR1 (11741424_a_at) / Fold change /veh CMKLR1 (11741424_a_at) / RFU LOC101060620 /// MAPK8IP1 (11723275_at) / Fold change /veh LOC101060620 /// MAPK8IP1 (11723275_at) / RFU SPTSSB (11747773_x_at) / Fold change /veh SPTSSB (11747773_x_at) / RFU PRSS12 (11739890_at) / Fold change /veh PRSS12 (11739890_at) / RFU BIN1 (11741810_x_at) / Fold change /veh BIN1 (11741810_x_at) / RFU WNT11 (11732464_a_at) / Fold change /veh WNT11 (11732464_a_at) / RFU C10orf10 (11716521_a_at) / Fold change /veh C10orf10 (11716521_a_at) / RFU C5orf56 (11738089_at) / Fold change /veh C5orf56 (11738089_at) / RFU CYB561 (11721691_x_at) / Fold change /veh CYB561 (11721691_x_at) / RFU ANKRD19P (11752326_a_at) / Fold change /veh ANKRD19P (11752326_a_at) / RFU OR2T12 /// OR2T33 /// OR2T8 (11738714_s_at) / Fold change /veh OR2T12 /// OR2T33 /// OR2T8 (11738714_s_at) / RFU VCAN (11748164_a_at) / Fold change /veh VCAN (11748164_a_at) / RFU JSRP1 (11732532_at) / Fold change /veh JSRP1 (11732532_at) / RFU KRTAP10-11 (11738290_x_at) / Fold change /veh KRTAP10-11 (11738290_x_at) / RFU MYO3A (11730013_a_at) / Fold change /veh MYO3A (11730013_a_at) / RFU EBF3 (11725865_a_at) / Fold change /veh EBF3 (11725865_a_at) / RFU CAMK2N1 (11719241_x_at) / Fold change /veh CAMK2N1 (11719241_x_at) / RFU C5orf56 (11738088_a_at) / Fold change /veh C5orf56 (11738088_a_at) / RFU OLFML3 (11715873_a_at) / Fold change /veh OLFML3 (11715873_a_at) / RFU LOC100653217 /// NTM (11731650_a_at) / Fold change /veh LOC100653217 /// NTM (11731650_a_at) / RFU MAPK11 (11762145_a_at) / Fold change /veh MAPK11 (11762145_a_at) / RFU FIZ1 (11724087_x_at) / Fold change /veh FIZ1 (11724087_x_at) / RFU OASL (11726364_x_at) / Fold change /veh OASL (11726364_x_at) / RFU SOX15 (11748057_x_at) / Fold change /veh SOX15 (11748057_x_at) / RFU CD79A (11719716_a_at) / Fold change /veh CD79A (11719716_a_at) / RFU HIST1H1D (11736915_at) / Fold change /veh HIST1H1D (11736915_at) / RFU CASKIN2 (11723855_a_at) / Fold change /veh CASKIN2 (11723855_a_at) / RFU LOC730098 (11760151_x_at) / Fold change /veh LOC730098 (11760151_x_at) / RFU OR4N2 (11742367_at) / Fold change /veh OR4N2 (11742367_at) / RFU PRRT2 (11749266_a_at) / Fold change /veh PRRT2 (11749266_a_at) / RFU SNX32 (11753110_a_at) / Fold change /veh SNX32 (11753110_a_at) / RFU CDHR5 (11726645_a_at) / Fold change /veh CDHR5 (11726645_a_at) / RFU RCAN1 (11760418_a_at) / Fold change /veh RCAN1 (11760418_a_at) / RFU FAM167A (11723789_a_at) / Fold change /veh FAM167A (11723789_a_at) / RFU FAM26E (11764081_at) / Fold change /veh FAM26E (11764081_at) / RFU ISYNA1 (11749810_s_at) / Fold change /veh ISYNA1 (11749810_s_at) / RFU ACY1 (11761880_at) / Fold change /veh ACY1 (11761880_at) / RFU 11764098_at / Fold change /veh 11764098_at / RFU SAMD14 (11745864_x_at) / Fold change /veh SAMD14 (11745864_x_at) / RFU NPB (11741838_a_at) / Fold change /veh NPB (11741838_a_at) / RFU TMPRSS6 (11731388_a_at) / Fold change /veh TMPRSS6 (11731388_a_at) / RFU KRTAP10-2 (11738614_at) / Fold change /veh KRTAP10-2 (11738614_at) / RFU ARHGAP8 /// PRR5-ARHGAP8 (11727945_x_at) / Fold change /veh ARHGAP8 /// PRR5-ARHGAP8 (11727945_x_at) / RFU KRTAP5-7 /// NADSYN1 (11734609_at) / Fold change /veh KRTAP5-7 /// NADSYN1 (11734609_at) / RFU RASL12 (11751679_a_at) / Fold change /veh RASL12 (11751679_a_at) / RFU CDKN2B (11736163_a_at) / Fold change /veh CDKN2B (11736163_a_at) / RFU PRF1 (11729649_at) / Fold change /veh PRF1 (11729649_at) / RFU, ZNF638 /// ZNF638-IT1 / Fold change vs veh, ZNF638 /// ZNF638-IT1 / RFU, PANK3 / Fold change vs veh, PANK3 / RFU, SH3YL1 / Fold change vs veh, SH3YL1 / RFU, ZEB2 / Fold change vs veh, ZEB2 / RFU, NRIP1 / Fold change vs veh, NRIP1 / RFU, PTTG1IP / Fold change vs veh, PTTG1IP / RFU, CAPN2 / Fold change vs veh, CAPN2 / RFU, MED14 / Fold change vs veh, MED14 / RFU, SNORA58 / Fold change vs veh, SNORA58 / RFU, C1orf63 / Fold change vs veh, C1orf63 / RFU, LRRFIP1 / Fold change vs veh, LRRFIP1 / RFU, NDUFAF7 / Fold change vs veh, NDUFAF7 / RFU, SLC12A2 / Fold change vs veh, SLC12A2 / RFU, IBTK / Fold change vs veh, IBTK / RFU, ESF1 / Fold change vs veh, ESF1 / Fold change vs veh, TMEM50B / RFU, TAOK1 / Fold change vs veh, TAOK1 / RFU, ACBD3 / Fold change vs veh, ACBD3 / RFU, TMA16 / Fold change vs veh, TMA16 / RFU, RWDD3 / Fold change vs veh, RWDD3 / RFU, BCAT1 / Fold change vs veh, BCAT1 / RFU, EDEM3 / Fold change vs veh, EDEM3 / RFU, TMEM33 / Fold change vs veh, TMEM33 / RFU, WDR75 / Fold change vs veh, WDR75 / RFU, AHCTF1 / Fold change vs veh, AHCTF1 / RFU, TFRC / Fold change vs veh, TFRC / RFU, ZDHHC17 / Fold change vs veh, ZDHHC17 / RFU, NOM1 / Fold change vs veh, NOM1 / RFU, ARL8B / Fold change vs veh, ARL8B / RFU, ZBTB11 / Fold change vs veh, ZBTB11 / RFU, TAMM41 / Fold change vs veh, TAMM41 / RFU, KIAA1704 /// LOC100996395 / Fold change vs veh, KIAA1704 /// LOC100996395 / RFU, ING1 / Fold change vs veh, ING1 / RFU, TRMT61B / Fold change vs veh, TRMT61B / RFU, FUBP3 / Fold change vs veh, FUBP3 / RFU, TP53 / Fold change vs veh, TP53 / RFU, TNKS2 / Fold change vs veh, TNKS2 / RFU, ZFP14 / Fold change vs veh, ZFP14 / RFU, ACTR2 / Fold change vs veh, ACTR2 / RFU, PPP3R1 / Fold change vs veh, PPP3R1 / RFU, PIK3R1 / Fold change vs veh, PIK3R1 / RFU, HNRNPA1 / Fold change vs veh, HNRNPA1 / RFU, RNF170 / Fold change vs veh, RNF170 / RFU, ZNF28 / Fold change vs veh, ZNF28 / RFU, RNGTT / Fold change vs veh, RNGTT / RFU, OGT / Fold change vs veh, OGT / RFU, BRD1 / Fold change vs veh, BRD1 / RFU, MARS / Fold change vs veh, MARS / RFU, ZNF655 / Fold change vs veh, ZNF655 / RFU, FAHD1 / Fold change vs veh, FAHD1 / RFU, BDP1 / Fold change vs veh, BDP1 / RFU, LRRCC1 / Fold change vs veh, LRRCC1 / RFU, ARID1A / Fold change vs veh, ARID1A / RFU, ZNF146 / Fold change vs veh, ZNF146 / RFU, ZNF330 / Fold change vs veh, ZNF330 / RFU, GPN3 / Fold change vs veh, GPN3 / RFU, C9orf123 / Fold change vs veh, C9orf123 / RFU, N4BP2L2 / Fold change vs veh, N4BP2L2 / RFU, ARFIP1 / Fold change vs veh, ARFIP1 / RFU, FAM179B / Fold change vs veh, FAM179B / RFU, BCL10 / Fold change vs veh, BCL10 / RFU, UHRF1BP1L / Fold change vs veh, UHRF1BP1L / RFU, BET1 / Fold change vs veh, BET1 / RFU, CNOT2 / Fold change vs veh, CNOT2 / RFU, ZNF268 / Fold change vs veh, ZNF268 / Fold change vs veh, ZNF507 / RFU, DGCR2 / Fold change vs veh, DGCR2 / RFU, WDSUB1 / Fold change vs veh, WDSUB1 / Fold change vs veh, HSP90B1 /// MIR3652 / RFU, ADSS / Fold change vs veh, ADSS / RFU, GK / Fold change vs veh, GK / RFU, ZNF148 / Fold change vs veh, ZNF148 / RFU, TAF9 / Fold change vs veh, TAF9 / RFU, SLC1A5 / Fold change vs veh, SLC1A5 / RFU, SLMO2 / Fold change vs veh, SLMO2 / RFU, ABCC4 / Fold change vs veh, ABCC4 / RFU, LOC101060439 /// RAP1B / Fold change vs veh, LOC101060439 /// RAP1B / RFU, RFX7 / Fold change vs veh, RFX7 / RFU, GTPBP10 / Fold change vs veh, GTPBP10 / RFU, CNEP1R1 / Fold change vs veh, CNEP1R1 / RFU, BIVM-ERCC5 /// ERCC5 / Fold change vs veh, BIVM-ERCC5 /// ERCC5 / RFU, ILF3 / Fold change vs veh, ILF3 / RFU 11762660_at / Fold change /veh 11762660_at / RFU VCAN (11757783_s_at) / Fold change /veh VCAN (11757783_s_at) / RFU DDX43 (11728927_at) / Fold change /veh DDX43 (11728927_at) / RFU KRT8 (11758188_x_at) / Fold change /veh KRT8 (11758188_x_at) / RFU NKD1 (11759106_at) / Fold change /veh NKD1 (11759106_at) / RFU SRD5A1 (11742802_a_at) / Fold change /veh SRD5A1 (11742802_a_at) / RFU TPSAB1 /// TPSB2 (11721975_s_at) / Fold change /veh TPSAB1 /// TPSB2 (11721975_s_at) / RFU GSTM3 (11746129_a_at) / Fold change /veh GSTM3 (11746129_a_at) / RFU IL23R (11737362_x_at) / Fold change /veh IL23R (11737362_x_at) / RFU TMEM51 (11727254_a_at) / Fold change /veh TMEM51 (11727254_a_at) / RFU PIWIL2 (11732686_x_at) / Fold change /veh PIWIL2 (11732686_x_at) / RFU ORM1 (11744905_x_at) / Fold change /veh ORM1 (11744905_x_at) / RFU CCDC152 (11743942_at) / Fold change /veh CCDC152 (11743942_at) / RFU ECM1 (11717891_a_at) / Fold change /veh ECM1 (11717891_a_at) / RFU IL23R (11748794_a_at) / Fold change /veh IL23R (11748794_a_at) / RFU TNFAIP8L3 (11732012_x_at) / Fold change /veh TNFAIP8L3 (11732012_x_at) / RFU MBOAT4 (11741988_at) / Fold change /veh MBOAT4 (11741988_at) / RFU 11764193_at / Fold change /veh 11764193_at / RFU TMEM53 (11763286_at) / Fold change /veh TMEM53 (11763286_at) / RFU MAGEB2 (11727129_at) / Fold change /veh MAGEB2 (11727129_at) / RFU TMEM200A (11744735_a_at) / Fold change /veh TMEM200A (11744735_a_at) / RFU CCDC152 (11751479_a_at) / Fold change /veh CCDC152 (11751479_a_at) / RFU FAM211A (11726209_a_at) / Fold change /veh FAM211A (11726209_a_at) / RFU RGS16 (11746705_a_at) / Fold change /veh RGS16 (11746705_a_at) / RFU VCAN (11755009_s_at) / Fold change /veh VCAN (11755009_s_at) / RFU RHOB (11743442_s_at) / Fold change /veh RHOB (11743442_s_at) / RFU RGS16 (11720943_a_at) / Fold change /veh RGS16 (11720943_a_at) / RFU RGS16 (11720944_at) / Fold change /veh RGS16 (11720944_at) / RFU, VPS4B / Fold change vs veh, VPS4B / RFU, CREB1 / Fold change vs veh, CREB1 / RFU, DNAJC13 / Fold change vs veh, DNAJC13 / RFU, GNAQ / Fold change vs veh, GNAQ / RFU, CDK5R1 / Fold change vs veh, CDK5R1 / RFU, ZRANB3 / Fold change vs veh, ZRANB3 / RFU, CUL4A / Fold change vs veh, CUL4A / RFU, CCNY / Fold change vs veh, CCNY / RFU, UFL1 / Fold change vs veh, UFL1 / RFU, COG3 / Fold change vs veh, COG3 / RFU, DIAPH2 / Fold change vs veh, DIAPH2 / RFU, SKA2 / Fold change vs veh, SKA2 / RFU, AFF3 / Fold change vs veh, AFF3 / RFU, LMF1 / Fold change vs veh, LMF1 / RFU, IPO11 / Fold change vs veh, IPO11 / RFU, DFFB / Fold change vs veh, DFFB / RFU, FOXP1 / Fold change vs veh, FOXP1 / RFU, CARD8 / Fold change vs veh, CARD8 / RFU, STRN3 / Fold change vs veh, STRN3 / RFU, ADK / Fold change vs veh, ADK / RFU, RASSF2 / Fold change vs veh, RASSF2 / RFU, WIPF1 / Fold change vs veh, WIPF1 / RFU, LARP1B / Fold change vs veh, LARP1B / RFU, RASA1 / Fold change vs veh, RASA1 / RFU, RB1 / Fold change vs veh, RB1 / RFU, PPFIA1 / Fold change vs veh, PPFIA1 / RFU, MAT2A / Fold change vs veh, MAT2A / RFU, CCT5 / Fold change vs veh, CCT5 / RFU, WDR92 / Fold change vs veh, WDR92 / RFU, CUX1 / Fold change vs veh, CUX1 / RFU, TTC7A / Fold change vs veh, TTC7A / RFU, TMEM135 / Fold change vs veh, TMEM135 / RFU, DEPTOR / Fold change vs veh, DEPTOR / RFU, CPM / Fold change vs veh, CPM / RFU, DNAJB6 / Fold change vs veh, DNAJB6 / RFU, CACNA2D3 / Fold change vs veh, CACNA2D3 / RFU, DTX4 / Fold change vs veh, DTX4 / RFU, TFCP2 / Fold change vs veh, TFCP2 / RFU, GMCL1 /// GMCL1P1 / Fold change vs veh, GMCL1 /// GMCL1P1 / RFU, AEBP2 / Fold change vs veh, AEBP2 / RFU, SNHG1 /// SNORD22 /// SNORD25 /// SNORD26 /// SNORD27 /// SNORD28 /// SNORD29 /// SNORD31 / Fold change vs veh, SNHG1 /// SNORD22 /// SNORD25 /// SNORD26 /// SNORD27 /// SNORD28 /// SNORD29 /// SNORD31 / Fold change (Aza/veh), C12orf56 (ProbeSet 11735607_a_at) / Fold change (ACY-1035/veh), C12orf56 (ProbeSet 11735607_a_at) / Fold change (Aza/veh), FGFR1OP (ProbeSet 11751329_s_at) / Fold change (ACY-1035/veh), FGFR1OP (ProbeSet 11751329_s_at) / Fold change (Aza/veh), VPS36 (ProbeSet 11739960_a_at) / Fold change (ACY-1035/veh), VPS36 (ProbeSet 11739960_a_at) / RFU SYPL1 (11715823_x_at) / Fold change /veh SYPL1 (11715823_x_at) / RFU IGFBP7 (11715501_s_at) / Fold change /veh IGFBP7 (11715501_s_at) / RFU REEP3 (11722064_at) / Fold change /veh REEP3 (11722064_at) / RFU IGLL1 (11728026_x_at) / Fold change /veh IGLL1 (11728026_x_at): dose or concentration left out as unconfirmed
Conditions: MV-4-11 cells, 48 hours

## Nc1ccc(-c2cccs2)cc1NC(=O)c1ccc2c(c1)cc(C1CC1)n2CCN1CCOCC1 [ACY-1035]
  Fold change /veh OLFML3 (11715873_a_at): 1.17
